In ChEMBL document CHEMBL3885861, “Open TG-GATES”:

Organism: Rattus norvegicus
Assay: Open TG-GATES - Regimen: Daily Repeat
Format: toxicity, organism-based, Sprague-Dawley
Parameters: regimen Daily Repeat, gender Male, age 6 weeks
Conditions: in vivo, po, route gavage; for APTT / Bas / Eos / Fbg / Hb / Ht / Lym / MCH / MCHC / MCV / Mono / Neu / PT / Plat / RBC / Ret / WBC: tissue Blood; for A/G / ALP / ALT / AST / BUN / CRE / Ca / Cl / DBIL / GLC / IP / K / LDH / Na / PL / RALB / TBIL / TC / TG / TP / gamma-GTP: tissue Plasma
[1] = 0 mg/kg, 72 h, dose level Control, time 3 day
[2] = 0 mg/kg, […], dose level Control, time 7 day
[3] = 0 mg/kg, […], dose level Control, time 14 day
[4] = 0 mg/kg, […], dose level Control, time 28 day
[5] = 10 mg/kg, 72 h, dose level Low, time 3 day
[6] = 10 mg/kg, […], dose level Low, time 7 day
[7] = 10 mg/kg, […], dose level Low, time 14 day
[8] = 10 mg/kg, […], dose level Low, time 28 day

SMILES: Cn1cc[nH]c1=S [METHIMAZOLE]
- TERMINAL_BW [1]: 217.3 g
- APTT [1]: 21.2 s
- Bas [1]: 0%
- Eos [1]: 1%
- Fbg [1]: 310.8 mg/dL
- Hb [1]: 13.8 g/dL
- Ht [1]: 38.2%
- Lym [1]: 84.8%
- MCH [1]: 22.7 pg
- MCHC [1]: 36.1%
- MCV [1]: 62.8 fL
- Mono [1]: 1.6%
- Neu [1]: 11.8%
- PT [1]: 16.2 s
- Plat [1]: 126.3 x10_4/uL
- RBC [1]: 609 x10_4/ul
- Ret [1]: 6.7%
- WBC [1]: 107.5 x10_2/uL
- A/G [1]: 1.3
- ALP [1]: 1736 IU/L
- ALT [1]: 41.4 IU/L
- AST [1]: 68 IU/L
- BUN [1]: 17 mg/dL
- CRE [1]: 0.1 mg/dL
- Ca [1]: 10.8 mg/dL
- Cl [1]: 105.8 meq/L
- DBIL [1]: 0.002 mg/dL
- GLC [1]: 190.8 mg/dL
- IP [1]: 6.8 mg/dL
- K [1]: 4.1 meq/L
- LDH [1]: 187.8 IU/L
- Na [1]: 141.8 meq/L
- PL [1]: 161 mg/dL
- RALB [1]: 3.2 g/dL
- TBIL [1]: 0.014 mg/dL
- TC [1]: 89.4 mg/dL
- TG [1]: 93.8 mg/dL
- TP [1]: 5.7 g/dL
- gamma-GTP [1]: 1.2 IU/L
- TERMINAL_BW [2]: 252.2 g
- TERMINAL_BW [3]: 307.5 g
- TERMINAL_BW [4]: 373.3 g
- APTT [2]: 20.9 s
- Bas [2]: 0%
- Eos [2]: 0.8%
- Fbg [2]: 321.4 mg/dL
- Hb [2]: 14.2 g/dL
- Ht [2]: 38.9%
- Lym [2]: 80.2%
- MCH [2]: 22.3 pg
- MCHC [2]: 36.5%
- MCV [2]: 60.9 fL
- Mono [2]: 2.6%
- Neu [2]: 15.6%
- PT [2]: 15.9 s
- Plat [2]: 115.9 x10_4/uL
- RBC [2]: 638 x10_4/ul
- Ret [2]: 5.8%
- WBC [2]: 112.3 x10_2/uL
- APTT [3]: 22.2 s
- Bas [3]: 0%
- Eos [3]: 0.6%
- Fbg [3]: 331.8 mg/dL
- Hb [3]: 13.7 g/dL
- Ht [3]: 39.4%
- Lym [3]: 80.6%
- MCH [3]: 20.5 pg
- MCHC [3]: 34.9%
- MCV [3]: 58.7 fL
- Mono [3]: 1.8%
- Neu [3]: 15.8%
- PT [3]: 16.3 s
- Plat [3]: 117.4 x10_4/uL
- RBC [3]: 672.6 x10_4/ul
- Ret [3]: 4.9%
- WBC [3]: 112.2 x10_2/uL
- APTT [4]: 22.6 s
- Bas [4]: 0%
- Eos [4]: 1%
- Fbg [4]: 316.6 mg/dL
- Hb [4]: 15.2 g/dL
- Ht [4]: 42.9%
- Lym [4]: 82.4%
- MCH [4]: 19.3 pg
- MCHC [4]: 35.3%
- MCV [4]: 54.7 fL
- Mono [4]: 2.2%
- Neu [4]: 13.2%
- PT [4]: 16.4 s
- Plat [4]: 97.4 x10_4/uL
- RBC [4]: 785.4 x10_4/ul
- Ret [4]: 2.6%
- WBC [4]: 113.4 x10_2/uL
- A/G [2]: 1.2
- ALP [2]: 1790.2 IU/L
- ALT [2]: 39 IU/L
- AST [2]: 75.8 IU/L
- BUN [2]: 17.2 mg/dL
- CRE [2]: 0.2 mg/dL
- Ca [2]: 10.6 mg/dL
- Cl [2]: 107 meq/L
- DBIL [2]: 0 mg/dL
- GLC [2]: 195.4 mg/dL
- IP [2]: 7.5 mg/dL
- K [2]: 4.1 meq/L
- LDH [2]: 290.8 IU/L
- Na [2]: 142.2 meq/L
- PL [2]: 163.4 mg/dL
- RALB [2]: 3 g/dL
- TBIL [2]: 0.002 mg/dL
- TC [2]: 84.8 mg/dL
- TG [2]: 126 mg/dL
- TP [2]: 5.5 g/dL
- gamma-GTP [2]: 1 IU/L
- A/G [3]: 1.1
- ALP [3]: 1783.8 IU/L
- ALT [3]: 42.8 IU/L
- AST [3]: 71 IU/L
- BUN [3]: 18.2 mg/dL
- CRE [3]: 0.2 mg/dL
- Ca [3]: 10.6 mg/dL
- Cl [3]: 106 meq/L
- DBIL [3]: 0 mg/dL
- GLC [3]: 182 mg/dL
- IP [3]: 7 mg/dL
- K [3]: 4.3 meq/L
- LDH [3]: 198.6 IU/L
- Na [3]: 142.2 meq/L
- PL [3]: 158.6 mg/dL
- RALB [3]: 3 g/dL
- TBIL [3]: 0.014 mg/dL
- TC [3]: 75.4 mg/dL
- TG [3]: 150.2 mg/dL
- TP [3]: 5.8 g/dL
- gamma-GTP [3]: 1.6 IU/L
- A/G [4]: 1.1
- ALP [4]: 1110.8 IU/L
- ALT [4]: 40.4 IU/L
- AST [4]: 65.8 IU/L
- BUN [4]: 18.4 mg/dL
- CRE [4]: 0.2 mg/dL
- Ca [4]: 10.5 mg/dL
- Cl [4]: 105.4 meq/L
- DBIL [4]: 0.002 mg/dL
- GLC [4]: 198.8 mg/dL
- IP [4]: 6.3 mg/dL
- K [4]: 4.4 meq/L
- LDH [4]: 191.8 IU/L
- Na [4]: 142.4 meq/L
- PL [4]: 149.2 mg/dL
- RALB [4]: 3.2 g/dL
- TBIL [4]: 0.002 mg/dL
- TC [4]: 65.8 mg/dL
- TG [4]: 168 mg/dL
- TP [4]: 6 g/dL
- gamma-GTP [4]: 1 IU/L
- TERMINAL_BW [5]: 223.1 g
- APTT [5]: 19.4 s
- Bas [5]: 0%
- Eos [5]: 1.2%
- Fbg [5]: 325.2 mg/dL
- Hb [5]: 13.7 g/dL
- Ht [5]: 38.6%
- Lym [5]: 81.8%
- MCH [5]: 21.9 pg
- MCHC [5]: 35.6%
- MCV [5]: 61.5 fL
- Mono [5]: 2.6%
- Neu [5]: 13.6%
- PT [5]: 16.4 s
- Plat [5]: 128.5 x10_4/uL
- RBC [5]: 628.2 x10_4/ul
- Ret [5]: 6.5%
- WBC [5]: 95 x10_2/uL
- A/G [5]: 1.1
- ALP [5]: 1789.2 IU/L
- ALT [5]: 40.8 IU/L
- AST [5]: 65.6 IU/L
- BUN [5]: 16.8 mg/dL
- CRE [5]: 0.1 mg/dL
- Ca [5]: 11.1 mg/dL
- Cl [5]: 106.8 meq/L
- DBIL [5]: 0 mg/dL
- GLC [5]: 184 mg/dL
- IP [5]: 6.3 mg/dL
- K [5]: 4.2 meq/L
- LDH [5]: 170 IU/L
- Na [5]: 141.8 meq/L
- PL [5]: 183 mg/dL
- RALB [5]: 3.1 g/dL
- TBIL [5]: 0.004 mg/dL
- TC [5]: 101.6 mg/dL
- TG [5]: 128.6 mg/dL
- TP [5]: 5.8 g/dL
- gamma-GTP [5]: 1.2 IU/L
- TERMINAL_BW [6]: 253.1 g
- TERMINAL_BW [7]: 300.3 g
- TERMINAL_BW [8]: 356.4 g
- APTT [6]: 20.3 s
- Bas [6]: 0%
- Eos [6]: 1%
- Fbg [6]: 333 mg/dL
- Hb [6]: 13.9 g/dL
- Ht [6]: 38.1%
- Lym [6]: 80%
- MCH [6]: 22.3 pg
- MCHC [6]: 36.4%
- MCV [6]: 61.3 fL
- Mono [6]: 2.6%
- Neu [6]: 15.6%
- PT [6]: 16.4 s
- Plat [6]: 121.5 x10_4/uL
- RBC [6]: 622.8 x10_4/ul
- Ret [6]: 5.6%
- WBC [6]: 102.3 x10_2/uL
- APTT [7]: 22.1 s
- Bas [7]: 0%
- Eos [7]: 0.8%
- Fbg [7]: 318.8 mg/dL
- Hb [7]: 14 g/dL
- Ht [7]: 40.7%
- Lym [7]: 85.2%
- MCH [7]: 20.1 pg
- MCHC [7]: 34.5%
- MCV [7]: 58.4 fL
- Mono [7]: 2%
- Neu [7]: 11.6%
- PT [7]: 16.5 s
- Plat [7]: 110.2 x10_4/uL
- RBC [7]: 697 x10_4/ul
- Ret [7]: 4.3%
- WBC [7]: 101.8 x10_2/uL
- APTT [8]: 23.7 s
- Bas [8]: 0%
- Eos [8]: 1%
- Fbg [8]: 306 mg/dL
- Hb [8]: 15 g/dL
- Ht [8]: 42.4%
- Lym [8]: 84.4%
- MCH [8]: 19.4 pg
- MCHC [8]: 35.4%
- MCV [8]: 54.8 fL
- Mono [8]: 2.4%
- Neu [8]: 11%
- PT [8]: 16.7 s
- Plat [8]: 87.5 x10_4/uL
- RBC [8]: 773 x10_4/ul
- Ret [8]: 2%
- WBC [8]: 108.5 x10_2/uL
- A/G [6]: 1.1
- ALP [6]: 1430.4 IU/L
- ALT [6]: 38 IU/L
- AST [6]: 65.8 IU/L
- BUN [6]: 17.4 mg/dL
- CRE [6]: 0.2 mg/dL
- Ca [6]: 10.8 mg/dL
- Cl [6]: 107.4 meq/L
- DBIL [6]: 0 mg/dL
- GLC [6]: 177.8 mg/dL
- IP [6]: 7.1 mg/dL
- K [6]: 4.1 meq/L
- LDH [6]: 232.4 IU/L
- Na [6]: 142 meq/L
- PL [6]: 171.8 mg/dL
- RALB [6]: 3 g/dL
- TBIL [6]: 0 mg/dL
- TC [6]: 90.8 mg/dL
- TG [6]: 149 mg/dL
- TP [6]: 5.9 g/dL
- gamma-GTP [6]: 1 IU/L
- A/G [7]: 1.1
- ALP [7]: 1277.4 IU/L
- ALT [7]: 40.6 IU/L
- AST [7]: 62.6 IU/L
- BUN [7]: 17.6 mg/dL
- CRE [7]: 0.2 mg/dL
- Ca [7]: 10.6 mg/dL
- Cl [7]: 106.6 meq/L
- DBIL [7]: 0 mg/dL
- GLC [7]: 176.8 mg/dL
- IP [7]: 6.1 mg/dL
- K [7]: 4.1 meq/L
- LDH [7]: 197.6 IU/L
- Na [7]: 142.2 meq/L
- PL [7]: 170.2 mg/dL
- RALB [7]: 3.2 g/dL
- TBIL [7]: 0.01 mg/dL
- TC [7]: 96 mg/dL
- TG [7]: 134 mg/dL
- TP [7]: 6.1 g/dL
- gamma-GTP [7]: 2 IU/L
- A/G [8]: 1.1
- ALP [8]: 1026.6 IU/L
- ALT [8]: 29.8 IU/L
- AST [8]: 51 IU/L
- BUN [8]: 19.2 mg/dL
- CRE [8]: 0.2 mg/dL
- Ca [8]: 10.7 mg/dL
- Cl [8]: 106.4 meq/L
- DBIL [8]: 0.002 mg/dL
- GLC [8]: 184.8 mg/dL
- IP [8]: 5.9 mg/dL
- K [8]: 4.1 meq/L
- LDH [8]: 143.8 IU/L
- Na [8]: 142.6 meq/L
- PL [8]: 160 mg/dL
- RALB [8]: 3.5 g/dL
- TBIL [8]: 0.004 mg/dL
- TC [8]: 81.2 mg/dL
- TG [8]: 165.4 mg/dL
- TP [8]: 6.6 g/dL
- gamma-GTP [8]: 1.8 IU/L
